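Exposure lasted 48 hours, with cells grown in 96-well plates and compounds tested at five concentrations. The concentration for 50% growth inhibition is given as GI50.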 The source made the active and inactive calls. No stated cut-off is given here; in the data, active = GI50 up to about 1.1 µM and inactive = higher.
How the values were obtained:
Assay in all cases: DTP human tumour cell line panel, 48 h
[1] = system: UO-31
[2] = system: MDA-MB-435
[3] = system: CAKI-1
[4] = system: DU-145
[5] = system: HCT-15
[6] = system: Malme-3M
[7] = system: MDA-MB-231
[8] = system: SF-268
[9] = system: OVCAR-8
[10] = system: SK-OV-3
[11] = system: SN12C
[12] = system: HL-60
[13] = system: NCI-H226
[14] = system: SR
[15] = system: NCI/ADR-RES
[16] = system: MOLT-4
[17] = system: A549
[18] = system: NCI-H23
[19] = system: CCRF-CEM
[20] = system: T47D

Structure (SMILES) | GI50 [1] | GI50 [2] | GI50 [3] | GI50 [4] | GI50 [5] [µM] | GI50 [6] | GI50 [7] | GI50 [8] | GI50 [9] | GI50 [10] | GI50 [11] | GI50 [12] | GI50 [13] | GI50 [14] | GI50 [15] | GI50 [16] | GI50 [17] | GI50 [18] | GI50 [19] | GI50 [20]
CN(C)c1ccc(/C=N/c2nc3cc4sc(/N=C/c5ccc(N(C)C)cc5)nc4cc3s2)cc1 | 92.7 µM (inactive) | 33.7 µM (inactive) | 21.3 µM (inactive) | 8.22 µM (inactive) | > 100 | > 100 µM (inactive) | > 100 µM (inactive) | 45 µM (inactive) | 76 µM (inactive) | 41.8 µM (inactive) | 83.9 µM (inactive) | 16.9 µM (inactive) | 33.3 µM (inactive) | 29.4 µM (inactive) | > 100 µM (inactive) | 12.9 µM (inactive) | 12.8 µM (inactive) | 28.5 µM (inactive) | 6.3 µM (inactive) | 42.5 µM (inactive)
O=C(Nc1sccc1S(=O)(=O)c1ccc(Cl)cc1)c1ccccc1 | > 100 µM (inactive) | > 100 µM (inactive) | > 100 µM (inactive) | > 100 µM (inactive) | > 100 | > 100 µM (inactive) | > 100 µM (inactive) | > 100 µM (inactive) | > 100 µM (inactive) | > 100 µM (inactive) | > 100 µM (inactive) | > 100 µM (inactive) | > 100 µM (inactive) | > 100 µM (inactive) | > 100 µM (inactive) | > 100 µM (inactive) | > 100 µM (inactive) | > 100 µM (inactive) | > 100 µM (inactive) | > 100 µM (inactive)
CCOC(=O)c1c(SCCN(CC)CC)n(-c2ccccc2)c(=S)n(-c2ccccc2)c1=O | 1.72 µM (inactive) | 2.23 µM (inactive) | 2.16 µM (inactive) | 1.68 µM (inactive) | 2.54 | 1.42 µM (inactive) | 3.33 µM (inactive) | 4.56 µM (inactive) | 2.64 µM (inactive) | 19.3 µM (inactive) | 1.91 µM (inactive) | 1.73 µM (inactive) | 21.5 µM (inactive) | 0.714 µM (active) | 32.1 µM (inactive) | 1.09 µM (active) | 3.16 µM (inactive) | 15.9 µM (inactive) | 1.26 µM (inactive) | 2.55 µM (inactive)
COc1ccc2c(c1)/C(=C(\C(Cl)=C(\Cl)N1CCCCC1)[N+](=O)[O-])N2 | > 100 µM (inactive) | > 100 µM (inactive) | > 100 µM (inactive) | > 100 µM (inactive) | > 100 | > 100 µM (inactive) | > 100 µM (inactive) | > 100 µM (inactive) | 87.5 µM (inactive) | > 100 µM (inactive) | > 100 µM (inactive) | > 100 µM (inactive) | 29.6 µM (inactive) | 27.1 µM (inactive) | > 100 µM (inactive) | 27.2 µM (inactive) | > 100 µM (inactive) | > 100 µM (inactive) | 40.7 µM (inactive) | > 100 µM (inactive)
Nc1ncnn2c(C3OC(CO)C(O)C3O)ccc12 (stereo not given) | 0.12 µM (active) | 0.137 µM (active) | 0.235 µM (active) | 0.23 µM (active) | 0.138 | 0.0698 µM (active) | 0.153 µM (active) | 0.236 µM (active) | 0.0991 µM (active) | 0.226 µM (active) | 0.195 µM (active) | 0.105 µM (active) | 0.235 µM (active) | 0.0364 µM (active) | 0.237 µM (active) | 0.153 µM (active) | 0.155 µM (active) | 0.137 µM (active) | 0.144 µM (active) | 0.291 µM (active)
CCOC1C=CC(=O)C(CO)O1 (stereo not given) | 2.21 µM (inactive) | 12.2 µM (inactive) | 13.4 µM (inactive) | 15.8 µM (inactive) | 10 | 12.2 µM (inactive) | 17.3 µM (inactive) | 14.1 µM (inactive) | 11.6 µM (inactive) | 18.8 µM (inactive) | 13.3 µM (inactive) | 5.57 µM (inactive) | 24 µM (inactive) | 1.99 µM (inactive) | 14.9 µM (inactive) | 6.65 µM (inactive) | 17.6 µM (inactive) | 12.6 µM (inactive) | 1.88 µM (inactive) | 8.81 µM (inactive)
FC(F)(F)c1ccccc1N1CCN(c2nc(-c3cccs3)nc3ccc(Br)cc23)CC1 | 47.8 µM (inactive) | 23.9 µM (inactive) | 21.6 µM (inactive) | 63.4 µM (inactive) | 7.46 | 24 µM (inactive) | 21 µM (inactive) | 48.8 µM (inactive) | 66.2 µM (inactive) | 57.3 µM (inactive) | 45.8 µM (inactive) | 36.4 µM (inactive) | 30.8 µM (inactive) | 31.6 µM (inactive) | 41.8 µM (inactive) | 44.5 µM (inactive) | 33.8 µM (inactive) | 34.4 µM (inactive) | 0.581 µM (active) | 2.37 µM (inactive)
N#Cc1c(N2CCCC2)ncn(-c2ccccc2)c1=O | > 100 µM (inactive) | > 100 µM (inactive) | > 100 µM (inactive) | > 100 µM (inactive) | > 100 | > 100 µM (inactive) | > 100 µM (inactive) | > 100 µM (inactive) | > 100 µM (inactive) | > 100 µM (inactive) | > 100 µM (inactive) | > 100 µM (inactive) | > 100 µM (inactive) | > 100 µM (inactive) | > 100 µM (inactive) | > 100 µM (inactive) | > 100 µM (inactive) | > 100 µM (inactive) | > 100 µM (inactive) | > 100 µM (inactive)
CCOC(=O)CCN1C(=O)C(=O)N(c2ccc(OC)cc2)C1=S | 56.5 µM (inactive) | > 100 µM (inactive) | > 100 µM (inactive) | > 100 µM (inactive) | > 100 | > 100 µM (inactive) | > 100 µM (inactive) | > 100 µM (inactive) | > 100 µM (inactive) | > 100 µM (inactive) | > 100 µM (inactive) | > 100 µM (inactive) | 25.6 µM (inactive) | > 100 µM (inactive) | > 100 µM (inactive) | > 100 µM (inactive) | > 100 µM (inactive) | > 100 µM (inactive) | > 100 µM (inactive) | > 100 µM (inactive)
Oc1ccc(-c2nc(-c3cccnc3)c(-c3ccc(Cl)cc3)[nH]2)cc1 | 10.8 µM (inactive) | 12.3 µM (inactive) | 17.9 µM (inactive) | 14.3 µM (inactive) | 12.1 | 13.5 µM (inactive) | 16.2 µM (inactive) | 14.6 µM (inactive) | 14.8 µM (inactive) | 13.6 µM (inactive) | 15.8 µM (inactive) | 6.95 µM (inactive) | 18.8 µM (inactive) | 5.43 µM (inactive) | 14.5 µM (inactive) | 2.52 µM (inactive) | 15.3 µM (inactive) | 13 µM (inactive) | 1.79 µM (inactive) | 11.7 µM (inactive)
COc1cc(OC)c2c(=O)c(O)c(-c3ccc(OC)c(OC)c3)oc2c1 | 8.85 µM (inactive) | 22.6 µM (inactive) | 4.1 µM (inactive) | 8.28 µM (inactive) | 3.08 | > 28.1 µM (inactive) | 5.28 µM (inactive) | 4.11 µM (inactive) | 3.83 µM (inactive) | 13.6 µM (inactive) | 6.28 µM (inactive) | 3.48 µM (inactive) | 9.4 µM (inactive) | 3.33 µM (inactive) | 2.86 µM (inactive) | 2.89 µM (inactive) | 5.85 µM (inactive) | 11.1 µM (inactive) | 3.1 µM (inactive) | 4.97 µM (inactive)
